Test systems include Escherichia coli TEM; Escherichia coli N10; Escherichia coli EC14.
What all share (conditions): agar dilution
The subject of experiment [1] is Streptococcus sp. group D 2041.
Experiment [2] concerns Klebsiella pneumoniae KAE.
In experiment [3] the test system is Staphylococcus epidermidis 222.
Experiment [4] concerns Streptococcus pyogenes C203.
The subject of experiment [5] is Streptococcus faecium ATCC 9790.
The subject of experiment [6] is Streptococcus pneumoniae Park 1.
The test system of experiment [7] is Haemophilus influenzae 76.
The subject of experiment [8] is Staphylococcus aureus V41.
Experiment [9] concerns Staphylococcus aureus S13E.
Experiment [10] concerns Staphylococcus aureus NRRL B313.
In experiment [11] the test system is Staphylococcus aureus X400.
Experiment [12] relates to Haemophilus influenzae C.L.
Experiment [13] has as its system Klebsiella pneumoniae X68.
Experiment [14] relates to Staphylococcus epidermidis EPI1.
Experiment [15] has as its system Klebsiella pneumoniae X26.

Values after ≈ are worked out from the molar mass of the structure shown.

We go through seven compounds from US4639433A, “Glycopeptide derivatives” (Eli Lilly and Company, priority 1985, dated 1987).

In the case of `C=CCCCCCCCCC(=O)NC1(C)CC(OC2C(Oc3c4cc5cc3Oc3ccc(cc3Cl)C(O)C(NC(=O)C(CC(C)C)N(C)C(=O)CCCCCCCCC=C)C(=O)NC(CC(N)=O)C(=O)NC5C(=O)NC3C(=O)NC(C(=O)NC(C(=O)O)c5cc(O)cc(O)c5-c5cc3ccc5O)C(O)c3ccc(c(Cl)c3)O4)OC(CO)C(O)C2O)OC(C)C1O` (stereo not drawn) [Compound 11, N^van,N^leu --(1-oxo-10-n-decenyl)vancomycin], the MIC came to 16 µg/mL (≈ 8.98 µM) in experiment [1]; 128 µg/mL (≈ 71.8 µM) in experiment [2]; 16 µg/mL (≈ 8.98 µM) in experiment [3]; 2 µg/mL (≈ 1.12 µM) in experiment [4]; 8 µg/mL (≈ 4.49 µM) in [5]; 64 µg/mL (≈ 35.9 µM) with Escherichia coli TEM. Further, the MIC against Escherichia coli N10 stood at 128 µg/mL (≈ 71.8 µM); in [6], 4 µg/mL (≈ 2.24 µM); in experiment [7] it was 32 µg/mL (≈ 18 µM); in experiment [8], 8 µg/mL (≈ 4.49 µM); in experiment [9] it was 8 µg/mL (≈ 4.49 µM); in experiment [10], 8 µg/mL (≈ 4.49 µM). The MIC in experiment [11] was 16 µg/mL (≈ 8.98 µM); with Escherichia coli EC14 it was 128 µg/mL (≈ 71.8 µM); in [12], 32 µg/mL (≈ 18 µM); in experiment [13], 128 µg/mL (≈ 71.8 µM); in experiment [14] it was 64 µg/mL (≈ 35.9 µM); in [15], 128 µg/mL (≈ 71.8 µM).

On to `CCCCCCCCCCCC(=O)N(C)C(CC(C)C)C(=O)NC1C(=O)NC(CC(N)=O)C(=O)NC2C(=O)NC3C(=O)NC(C(=O)NC(C(=O)O)c4cc(O)cc(O)c4-c4cc3ccc4O)C(O)c3ccc(c(Cl)c3)Oc3cc2cc(c3OC2OC(CO)C(O)C(O)C2OC2CC(C)(N)C(O)C(C)O2)Oc2ccc(cc2Cl)C1O` (stereo not drawn) [Compound 13, N^leu --(1-oxo-n-dodecyl)vancomycin], for which the MIC is 8 µg/mL (≈ 4.9 µM) in [1]; “-- (not active at 128 mcg/ml)” in experiment [2]; 8 µg/mL (≈ 4.9 µM) in [3]; 8 µg/mL (≈ 4.9 µM) in [4]; 8 µg/mL (≈ 4.9 µM) in [5]; “-- (not active at 128 mcg/ml)” against Escherichia coli TEM. Besides, the MIC entry against Escherichia coli N10 was “-- (not active at 128 mcg/ml)”; in [6] it was 8 µg/mL (≈ 4.9 µM); in [7], 32 µg/mL (≈ 19.6 µM); in experiment [8], 8 µg/mL (≈ 4.9 µM); in experiment [9] it was 8 µg/mL (≈ 4.9 µM); in [10] it was 8 µg/mL (≈ 4.9 µM). The MIC in [11] was 8 µg/mL (≈ 4.9 µM); against Escherichia coli EC14, “-- (not active at 128 mcg/ml)”; in experiment [12] it was 128 µg/mL (≈ 78.5 µM); in experiment [13] it was “-- (not active at 128 mcg/ml)”; in experiment [14], 32 µg/mL (≈ 19.6 µM); in experiment [15], “-- (not active at 128 mcg/ml)”.

For the compound `CNC(CC(C)C)C(=O)NC1C(=O)NC(CC(N)=O)C(=O)NC2C(=O)NC3C(=O)NC(C(=O)NC(C(=O)O)c4cc(O)cc(O)c4-c4cc3ccc4O)C(O)c3ccc(c(Cl)c3)Oc3cc2cc(c3OC2OC(CO)C(O)C(O)C2OC2CC(C)(NC(=O)C(N)C(C)C)C(O)C(C)O2)Oc2ccc(cc2Cl)C1O` (stereo not drawn) [Compound 33, N^van --(2-amino-1-oxo-isopentyl)vancomycin], the MIC in experiment [1] is 32 µg/mL (≈ 20.7 µM); in experiment [2] it was “-- (not active at 128 mcg/ml)”; in experiment [3], 32 µg/mL (≈ 20.7 µM); in [4], 8 µg/mL (≈ 5.17 µM); in [5], 8 µg/mL (≈ 5.17 µM); against Escherichia coli TEM, “-- (not active at 128 mcg/ml)”. Besides, the MIC result was “-- (not active at 128 mcg/ml)” against Escherichia coli N10; 8 µg/mL (≈ 5.17 µM) in [6]; “-- (not active at 128 mcg/ml)” in [7]; 8 µg/mL (≈ 5.17 µM) in experiment [8]; 8 µg/mL (≈ 5.17 µM) in [9]; 8 µg/mL (≈ 5.17 µM) in experiment [10]. In addition, the MIC in experiment [11] was 32 µg/mL (≈ 20.7 µM); in the experiment with Escherichia coli EC14 it was “-- (not active at 128 mcg/ml)”; in [12], “-- (not active at 128 mcg/ml)”; in experiment [13], “-- (not active at 128 mcg/ml)”; in experiment [14] it was 32 µg/mL (≈ 20.7 µM); in experiment [15], “-- (not active at 128 mcg/ml)”.

For `C=CCCCCCCCCC(=O)N(C)C(CC(C)C)C(=O)NC1C(=O)NC(CC(N)=O)C(=O)NC2C(=O)NC3C(=O)NC(C(=O)NC(C(=O)O)c4cc(O)cc(O)c4-c4cc3ccc4O)C(O)c3ccc(c(Cl)c3)Oc3cc2cc(c3OC2OC(CO)C(O)C(O)C2OC2CC(C)(N)C(O)C(C)O2)Oc2ccc(cc2Cl)C1O` (stereo not drawn) [Compound 10, N^leu --(1-oxo-10-n-decenyl)vancomycin], the MIC in experiment [1] is 4 µg/mL (≈ 2.48 µM); in experiment [2], “-- (not active at 128 mcg/ml)”; in experiment [3], 8 µg/mL (≈ 4.95 µM); in experiment [4], 1 µg/mL (≈ 0.619 µM); in experiment [5], 2 µg/mL (≈ 1.24 µM); in the experiment with Escherichia coli TEM, “-- (not active at 128 mcg/ml)”. Moreover, the MIC result against Escherichia coli N10 was “-- (not active at 128 mcg/ml)”; in [6], 2 µg/mL (≈ 1.24 µM); in [7], “-- (not active at 128 mcg/ml)”; in experiment [8], 4 µg/mL (≈ 2.48 µM); in [9] it was 4 µg/mL (≈ 2.48 µM); in experiment [10], 4 µg/mL (≈ 2.48 µM). For the same compound, the MIC was 4 µg/mL (≈ 2.48 µM) in experiment [11]; “-- (not active at 128 mcg/ml)” against Escherichia coli EC14; “-- (not active at 128 mcg/ml)” in experiment [12]; “-- (not active at 128 mcg/ml)” in [13]; 32 µg/mL (≈ 19.8 µM) in experiment [14]; “-- (not active at 128 mcg/ml)” in experiment [15].

With `CCC(CC)C(=O)NC1(C)CC(OC2C(Oc3c4cc5cc3Oc3ccc(cc3Cl)C(O)C3NC(=O)C(NC(=O)C5NC(=O)C(CC(N)=O)NC(=O)C(NC(=O)C(CC(C)C)NC)C(O)c5ccc(c(Cl)c5)O4)c4ccc(O)c(c4)-c4c(O)cc(O)cc4C(C(=O)O)NC3=O)OC(CO)C(O)C2O)OC(C)C1O` (stereo not drawn) [Compound 22, N^van --(2-ethyl-1-oxo-n-butyl)vancomycin], the MIC in experiment [1] was 8 µg/mL (≈ 5.17 µM); in [2], “-- (not active at 128 mcg/ml)”; in experiment [3], 2 µg/mL (≈ 1.29 µM); in experiment [4], 2 µg/mL (≈ 1.29 µM); in experiment [5], 2 µg/mL (≈ 1.29 µM); with Escherichia coli TEM it was “-- (not active at 128 mcg/ml)”. The MIC result against Escherichia coli N10 is “-- (not active at 128 mcg/ml)”; in [6] it was 2 µg/mL (≈ 1.29 µM); in experiment [7], 128 µg/mL (≈ 82.7 µM); in [8], 2 µg/mL (≈ 1.29 µM); in [9] it was 2 µg/mL (≈ 1.29 µM); in [10], 2 µg/mL (≈ 1.29 µM). The MIC in experiment [11] was 2 µg/mL (≈ 1.29 µM); against Escherichia coli EC14, “-- (not active at 128 mcg/ml)”; in experiment [12], 128 µg/mL (≈ 82.7 µM); in experiment [13], “-- (not active at 128 mcg/ml)”; in experiment [14], 8 µg/mL (≈ 5.17 µM); in experiment [15], “-- (not active at 128 mcg/ml)”.

As to `CCCCCCCCCC(=O)NC1(C)CC(OC2C(Oc3c4cc5cc3Oc3ccc(cc3Cl)C(O)C(NC(=O)C(CC(C)C)N(C)C(=O)CCCCCCCCC)C(=O)NC(CC(N)=O)C(=O)NC5C(=O)NC3C(=O)NC(C(=O)NC(C(=O)O)c5cc(O)cc(O)c5-c5cc3ccc5O)C(O)c3ccc(c(Cl)c3)O4)OC(CO)C(O)C2O)OC(C)C1O` (stereo not drawn) [Compound 8, N^van,N^leu-di(1-oxo-n-decyl)vancomycin], the MIC is 8 µg/mL (≈ 4.55 µM) in experiment [1]; “-- (not active at 128 mcg/ml)” in experiment [2]; 8 µg/mL (≈ 4.55 µM) in [3]; 4 µg/mL (≈ 2.28 µM) in experiment [4]; 8 µg/mL (≈ 4.55 µM) in experiment [5]; “-- (not active at 128 mcg/ml)” against Escherichia coli TEM. Besides, the MIC entry against Escherichia coli N10 is “-- (not active at 128 mcg/ml)”; in [6], 16 µg/mL (≈ 9.1 µM); in [7], “-- (not active at 128 mcg/ml)”; in [8], 4 µg/mL (≈ 2.28 µM); in experiment [9], 8 µg/mL (≈ 4.55 µM); in experiment [10], 2 µg/mL (≈ 1.14 µM). The MIC in experiment [11] was 4 µg/mL (≈ 2.28 µM); against Escherichia coli EC14 it was “-- (not active at 128 mcg/ml)”; in experiment [12], “-- (not active at 128 mcg/ml)”; in experiment [13], “-- (not active at 128 mcg/ml)”; in [14], 32 µg/mL (≈ 18.2 µM); in [15], “-- (not active at 128 mcg/ml)”.

As for `CNC(CC(C)C)C(=O)NC1C(=O)NC(CC(N)=O)C(=O)NC2C(=O)NC3C(=O)NC(C(=O)NC(C(=O)O)c4cc(O)cc(O)c4-c4cc3ccc4O)C(O)c3ccc(c(Cl)c3)Oc3cc2cc(c3OC2OC(CO)C(O)C(O)C2OC2CC(C)(NC(=O)CCCCCBr)C(O)C(C)O2)Oc2ccc(cc2Cl)C1O` (stereo not drawn) [Compound 35, N^van --(6-bromo-n-hexyl)vancomycin], the MIC was 8 µg/mL (≈ 4.92 µM) in experiment [1]; “-- (not active at 128 mcg/ml)” in experiment [2]; 4 µg/mL (≈ 2.46 µM) in experiment [3]; 2 µg/mL (≈ 1.23 µM) in experiment [4]; 2 µg/mL (≈ 1.23 µM) in [5]; “-- (not active at 128 mcg/ml)” in the experiment on Escherichia coli TEM. In addition, the MIC entry in the experiment with Escherichia coli N10 is “-- (not active at 128 mcg/ml)”; in experiment [6] it was 1 µg/mL (≈ 0.615 µM); in experiment [7] it was “-- (not active at 128 mcg/ml)”; in experiment [8] it was 2 µg/mL (≈ 1.23 µM); in [9], 2 µg/mL (≈ 1.23 µM); in experiment [10], 2 µg/mL (≈ 1.23 µM). Besides, the MIC was 4 µg/mL (≈ 2.46 µM) in experiment [11]; “-- (not active at 128 mcg/ml)” in the experiment with Escherichia coli EC14; “-- (not active at 128 mcg/ml)” in experiment [12]; “-- (not active at 128 mcg/ml)” in [13]; 8 µg/mL (≈ 4.92 µM) in [14]; “-- (not active at 128 mcg/ml)” in experiment [15].
